Data from patent EP0150227A1, “Dipeptide derivatives and their use in determining the activity of carboxypeptidase A” (FUJIREBIO KABUSHIKI KAISHA also trading as FUJIREBIO INC., priority 1983, dated 1985).
Values belong to the molecule of their own block, whether it stands above or below them. Non-standard residues stand in square brackets, D forms with d. Residues, ends and D or L forms follow the SMILES beside them. 4Abz = Nc1ccc(C(=O)O)cc1

Columns and labels:
Type in all cases: biochemical
carboxypeptidase A [1] = test: Spectrophotometric CP-A activity determination (hippuricase, benzoate hydroxylase, decrease of NADPH/NADH absorbance at 340 nm)
Method: […] of serum (the same as used in Example 6) was added to 0.5 ml of a test reagent solution (pH 8.0) containing 10 mM p-hydroxybenzoylglycyl-L-tyrosine, 3000 U/1 hippuricase, 0.2 mM NADPH, 10000 U/1 p-hydroxybenzoate hydroxylase and 100 mM boric acid.
The decrease in the absorbance by the solution was measured at 340 nm of light at a temperature of 37°C during the course of the reaction. There was used for the measurement a reaction rate analyser in which the reaction time was five minutes. The activity value (mU/ml) of CP-A was automatically printed out in the analyser.
The calculation of activity was performed according to the following formula: [formula] wherein ε = 6.22 x 10^3 (Molecular extinction coefficient of NADPH)
The activity of CP-A was determined by repeating the procedure shown in Example 8 except that o-hydroxybenzoyl-L-isoleucyl-L-phenylalanine was used instead of p-hydroxybenzoylglycyl-L-tyrosine, salicylate hydroxylase was used instead of p-hydroxybenzoate hydroxylase, and nicotinamide adenine dinucleotide in reduced form (NADH) was used instead of NADPH.
The activity of CP-A was determined by repeating the procedure shown in Example 8 with a mixture prepared by adding 0.05 ml of serum (the same as used in Example 6) to 0.5 ml of a test reagent solution (pH 8.0) containing 30 mM p-methoxybenzoyl-L-leucyl-L-phenylalanine, 1000 U/1 hippuricase, 0.2 mM NADH, 20000 U/1 p-methoxybenzoate hydroxylase and 100 mM phosphoric acid.

carboxypeptidase A [2] = test: Colourimetric CP-A activity determination (hippuricase, NaNO2 diazotisation, azo dye at 505 nm); conditions: same serum as Example 6; 20 mM substrate, pH 8.0, 37°C, 20 minutes; repeated 20 times, CV 5.3%
Method: 0.05 ml of serum (the same as used in Example 6) containing CP-A was added to 0.5 ml of a test reagent solution (pH 8.0) containing 20 mM p-aminobenzoyl-L-alanyl-L-tyrosine, 0.5 M NaCl, 3000 U/1 hippuricase and 100 mM boric acid. After this mixture had been allowed to stand at 37°C for 20 minutes, 0.5 ml of a solution containing 2 mM NaN02 and 1 mM NaOH was added to the mixture, and the mixture was allowed to stand at room temperature for 10 minutes. 0.5 ml of a reagent solution containing 1 mM potassium l-naphthol-2-sulphate, 50 mM boric acid and 200 mM NaOH was added to the mixture. The absorbance by the solution was measured at 505 nm of light. This absorbance is referred to as Absorbance A.
Absorbance B was measured by repeating the procedure as shown above but using 0.05 ml of an aqueous solution containing 10 uM p-aminobenzoic acid instead of 0.05 ml of serum, and Absorbance C was measured by repeating the procedure as shown above but using 0.05 ml of distilled water instead of 0.05 ml of serum.
The activity value (mU/ml) of CP-A can be calculated by the following equation: [formula]

carboxypeptidase A [3] = test: Colourimetric CP-A activity determination (hippuricase, 4-aminoantipyrine, periodate, quinonimine dye at 505 nm); conditions: serum containing carboxypeptidase A; 10 mM substrate, pH 7.8, 37°C, 20 minutes; test repeated 20 times, CV 3.4%
Method: 0.1 ml of serum containing carboxypeptidase A was added to 0.5 ml of a test reagent solution of pH 7.8 containing 10 mM p-hydroxybenzoyl-L-alanyl-L-phenylalanine, 0.1 M sodium chloride, 3000 U/1 hippuricase, 2.5 mM 4-aminoantipyrine and 100 mM N-2-hydroxyethyl piperazine-N-2-ethane sulphonic acid. The mixture was incubated at 37°C for 20 minutes. 1.5 ml of a reaction termination solution containing 6.5 mM sodium periodate was added to this reaction mixture. The mixture obtained was incubated at 37°C for five minutes, so that quinonimine dye was formed. The absorbance of the reaction mixture was measured at a light wavelength of 505 nm. This absorbance is referred to as Absorbance A.
Separately, for a blank (comparison) test, in the procedure as mentioned above, 1.5 ml of a reaction termination solution containing 6.5 mM sodium […] was added to the test reagent solution before 0.1 ml of serum containing carboxypeptidase A was added to the test reagent solution. The absorbance of the blank test reagent was then measured in the same manner as described above, at a light wavelength of 505 nm. This absorbance is referred to as Absorbance B.
The activity value (mU/ml) of carboxypeptidase A can be calculated by the following equation: [formula] where ε = 12000 (Molecular extinction coefficient or guinon- imine dye)

- Activity value (carboxypeptidase A [2]): 1.7 mU/ml
SMILES: C[C@H](NC(=O)c1ccc(N)cc1)C(=O)N[C@@H](Cc1ccc(O)cc1)C(=O)O [p-aminobenzoyl-L-alanyl-L-tyrosine] (H-[4Abz]-Ala-Tyr-OH)

- Activity value (carboxypeptidase A [3]): 5.1 mU/ml
SMILES: C[C@H](NC(=O)c1ccc(O)cc1)C(=O)N[C@@H](Cc1ccccc1)C(=O)O [p-hydroxybenzoyl-L-alanyl-L-phenylalanine]

The next lines start with the molecule.

SMILES: CC[C@H](C)[C@H](NC(=O)c1ccccc1O)C(=O)N[C@@H](Cc1ccccc1)C(=O)O [o-hydroxybenzoyl-L-isoleucyl-L-phenylalanine]
- Activity value (carboxypeptidase A [1]; procedure of Example 8 with salicylate hydroxylase and NADH, CV 7.0%): 1.1 mU/ml

SMILES: O=C(CNC(=O)c1ccc(O)cc1)N[C@@H](Cc1ccc(O)cc1)C(=O)O [p-hydroxybenzoylglycyl-L-tyrosine]
- Activity value (carboxypeptidase A [1]; same serum as Example 6, 10 mM substrate, pH 8.0, 37°C, 0.2 mM NADPH, p-hydroxybenzoate hydroxylase, repeated 20 times, CV 5.2%): 6.2 mU/ml

SMILES: COc1ccc(C(=O)N[C@@H](CC(C)C)C(=O)N[C@@H](Cc2ccccc2)C(=O)O)cc1 [p-methoxybenzoyl-L-leucyl-L-phenylalanine]
- Activity value (carboxypeptidase A [1]; same serum as Example 6, 30 mM substrate, pH 8.0, 0.2 mM NADH, p-methoxybenzoate hydroxylase, 100 mM phosphoric acid, CV 4.7%): 2.5 mU/ml
